Reference: patent publication US20250188082A1, “Use of Hypoxanthine Compound In Preparation of Drug For Treating Pulmonary Fibrosis” (Sichuan Yiasuo Pharmaceutical Technology Co., Ltd., priority 2022, published 2025)

tested on: bleomycin-induced pulmonary fibrosis model; assay: Comparison with comparative drugs: bleomycin-induced model, hydroxyproline and TGF-β; type: in vivo, C57BL/6 mice; conditions: 120 mg/kg/d intragastric, twice every day, 14 days, from two weeks after model; Day 15

`CC(C)n1cnc2c(=O)[nH]cnc21` [Compound E-1] and `CC(C)n1cnc2c(=S)[nH]cnc21` [Compound E-4] are the same in “Hydroxyproline in bronchoalveolar lavage fluids” value: 1.14 ± 0.16 µg/mg for the first, 1.14 ± 0.18 µg/mg for the second.

`CC(C)n1cnc2[nH]cnc2c1=O` [Compound E-2] and `CC(C)n1cnc2[nH]cnc2c1=S` [Compound E-5] are within error of each other in “Hydroxyproline in bronchoalveolar lavage fluids” value: 1.16 ± 0.28 µg/mg for the first, 1.17 ± 0.16 µg/mg for the second.

Compared with `CC(C)n1cnc2c(ncn2C(C)C)c1=O` [Compound E-3], `CC(C)n1cnc2c(ncn2C(C)C)c1=S` [Hypoxanthine analogue D] is higher in “Hydroxyproline in bronchoalveolar lavage fluids” value: 1.03 ± 0.29 µg/mg for the first, 1.94 ± 0.13 µg/mg for the second.

`CC(C)n1cnc2c(=O)n(C)cnc21` [Compound E-6] and `CC(C)n1cnc2c(=N)[nH]cnc21` [Compound E-7] are within error of each other in “Hydroxyproline in bronchoalveolar lavage fluids” value: 1.18 ± 0.15 µg/mg for the first, 1.15 ± 0.18 µg/mg for the second.

In the case of `CC(C)n1cnc2[nH]cnc2c1=N` [Compound E-8], the “Hydroxyproline in bronchoalveolar lavage fluids” value was 1.06 ± 0.19 µg/mg.

`CC(C)n1cnc2c(=O)[nH]cnc21` [Compound E-1] and `CC(C)n1cnc2c(=S)[nH]cnc21` [Compound E-4] are within error of each other in “Hydroxyproline in lung tissues” value: 2.18 ± 0.32 µg/mg for the first, 1.98 ± 0.44 µg/mg for the second.

`CC(C)n1cnc2[nH]cnc2c1=O` [Compound E-2] and `CC(C)n1cnc2[nH]cnc2c1=S` [Compound E-5] are within error of each other in “Hydroxyproline in lung tissues” value: 1.93 ± 0.24 µg/mg for the first, 2.15 ± 0.35 µg/mg for the second.

`CC(C)n1cnc2c(ncn2C(C)C)c1=O` [Compound E-3] and `CC(C)n1cnc2c(ncn2C(C)C)c1=S` [Hypoxanthine analogue D] are the same in “Hydroxyproline in lung tissues” value: 2.15 ± 0.23 µg/mg for the first, 2.15 ± 0.35 µg/mg for the second.

`CC(C)n1cnc2c(=O)n(C)cnc21` [Compound E-6] and `CC(C)n1cnc2c(=N)[nH]cnc21` [Compound E-7] are within error of each other in “Hydroxyproline in lung tissues” value: 2.35 ± 0.24 µg/mg for the first, 1.99 ± 0.25 µg/mg for the second.

In the case of `CC(C)n1cnc2[nH]cnc2c1=N` [Compound E-8], the “Hydroxyproline in lung tissues” value was 2.03 ± 0.51 µg/mg.

`CC(C)n1cnc2c(=O)[nH]cnc21` [Compound E-1] and `CC(C)n1cnc2c(=S)[nH]cnc21` [Compound E-4] are within error of each other in “TGF-β in bronchoalveolar lavage fluids” value: 6.51 ± 0.24 µg/L for the first, 6.84 ± 0.95 µg/L for the second.

`CC(C)n1cnc2[nH]cnc2c1=O` [Compound E-2] and `CC(C)n1cnc2[nH]cnc2c1=S` [Compound E-5] are within error of each other in “TGF-β in bronchoalveolar lavage fluids” value: 6.21 ± 0.24 µg/L for the first, 6.51 ± 0.86 µg/L for the second.

`CC(C)n1cnc2c(ncn2C(C)C)c1=O` [Compound E-3] and `CC(C)n1cnc2c(ncn2C(C)C)c1=S` [Hypoxanthine analogue D] are within error of each other in “TGF-β in bronchoalveolar lavage fluids” value: 6.35 ± 0.28 µg/L for the first, 6.42 ± 1.02 µg/L for the second.

`CC(C)n1cnc2c(=O)n(C)cnc21` [Compound E-6] and `CC(C)n1cnc2c(=N)[nH]cnc21` [Compound E-7] are within error of each other in “TGF-β in bronchoalveolar lavage fluids” value: 6.14 ± 0.85 µg/L for the first, 6.38 ± 0.95 µg/L for the second.

`CC(C)n1cnc2[nH]cnc2c1=N` [Compound E-8] was tested, and the “TGF-β in bronchoalveolar lavage fluids” value was 6.51 ± 0.58 µg/L.

`CC(C)n1cnc2c(=O)[nH]cnc21` [Compound E-1] and `CC(C)n1cnc2c(=S)[nH]cnc21` [Compound E-4] are within error of each other in “TGF-β in lung tissues” value: 63.95 ± 2.19 µg/L for the first, 63.58 ± 2.95 µg/L for the second.

`CC(C)n1cnc2[nH]cnc2c1=O` [Compound E-2] and `CC(C)n1cnc2[nH]cnc2c1=S` [Compound E-5] are within error of each other in “TGF-β in lung tissues” value: 66.56 ± 1.95 µg/L for the first, 65.82 ± 3.54 µg/L for the second.

`CC(C)n1cnc2c(ncn2C(C)C)c1=O` [Compound E-3] and `CC(C)n1cnc2c(ncn2C(C)C)c1=S` [Hypoxanthine analogue D] are within 1.5-fold of each other in “TGF-β in lung tissues” value: 62.54 ± 1.28 µg/L for the first, 93.36 ± 8.51 µg/L for the second.

`CC(C)n1cnc2c(=O)n(C)cnc21` [Compound E-6] and `CC(C)n1cnc2c(=N)[nH]cnc21` [Compound E-7] are within error of each other in “TGF-β in lung tissues” value: 63.56 ± 6.54 µg/L for the first, 68.25 ± 2.58 µg/L for the second.

For `CC(C)n1cnc2[nH]cnc2c1=N` [Compound E-8], the “TGF-β in lung tissues” value was 68.54 ± 2.25 µg/L.
